{"source": "a melting point compilation (Tetko et al.; mined from patent text by program, amines drawn as free bases though some values may be those of a salt)"}
{"units": {"melting point": "°C"}}
{"smiles": "CC(=O)OCc1cc([N+](=O)[O-])ccc1C", "melting point": "52 to 53.5"}
{"smiles": "O=[N+]([O-])C=Cc1ccsc1", "melting point": "94.5 to 96.5"}
{"smiles": "Nc1ccccc1NC(=O)c1ccc(CNC(=O)COc2cccnc2)cc1", "melting point": "154 to 155"}
{"smiles": "COc1ccc(Cc2nc3cc(Cl)cc(CC=NO)c3o2)cc1OC1CCCC1", "melting point": "149 to 151"}
{"smiles": "CC(Oc1ccc(-c2ccc(-c3c(Cc4ccccc4)oc4ccccc34)cc2)cc1)C(=O)O", "note": "(stereo not given)", "melting point": "112 to 114"}
{"smiles": "Cn1ncnc1COc1nn2c(-c3ccccc3)nnc2cc1-c1ccco1", "melting point": "263 to 265"}
{"smiles": "CCCNC(=O)NCc1cccc2c1CN(C1CCC(=O)NC1=O)C2=O", "note": "(stereo not given)", "melting point": "298 to 300"}
{"smiles": "CCOC(=O)c1ncc2[nH]c3ccc(I)cc3c2c1COC", "melting point": "204 to 206"}
{"smiles": "Nc1nc2ccccc2c2c1nc(O)n2Cc1cccnc1", "melting point": "> 250"}
{"smiles": "O=[N+]([O-])c1cccc(Cl)c1NCc1ccccc1Cl", "melting point": "69 to 71"}
{"smiles": "CC(=O)C1=CCC2C3CCC4=CC(=O)CCC4(C)C3(F)C(=O)CC12C", "note": "(stereo not given)", "melting point": "208 to 211"}
{"smiles": "O=C(O)c1c[nH]c2c1C(=O)CCC2", "melting point": "269 to 270"}
{"smiles": "CC(C)c1nn(-c2ccc(C(F)(F)F)cn2)cc1CCCCOc1cc(CCC(=O)O)n(-c2ccccc2)n1", "melting point": "137 to 138"}
{"smiles": "CCn1c(=O)c2c(nc(/C=C/c3ccc(OC(C)=O)c(OC)c3)n2C)n(CC)c1=O", "melting point": "194 to 195"}
{"smiles": "NC(=O)C1CCc2c([nH]c3ccc(Cl)cc23)C1", "note": "(stereo not given)", "melting point": "203 to 204"}
{"smiles": "Cc1c(C(=O)O)ncn1Cc1ccc2oc(-c3ccccc3-c3nnn[nH]3)c(Br)c2c1", "melting point": 248}
{"smiles": "CC(=O)C1=C(O)C(=C(C)Nc2cccc(NS(=O)(=O)c3ccccc3)c2)C(=O)OC1=O", "melting point": 209}
{"smiles": "Brc1cccc(-c2cn([C@H]3CN4CCC3CC4)nn2)c1", "melting point": 188}
{"smiles": "CCC(=O)C(=Cc1ccc(C#N)cc1)C(=O)CC", "melting point": "59 to 60"}
{"smiles": "Cn1cc([C@H]2CC[C@@H](N3CCN(c4cc(Br)cc5cccnc45)CC3)CC2)c2cc(F)ccc21", "melting point": "215 to 217"}
{"smiles": "COc1ccc(C(=O)Nc2ccc3ccc(Oc4cccc(C)c4)nc3n2)cc1", "melting point": 160}
{"smiles": "CNC(=O)c1ccc(CN2CCN(c3nc(C)c(-c4cc(C)n[nH]4)s3)C2=O)cc1", "melting point": "236 to 238"}
{"smiles": "CCC(C)(C)c1ccc(OCCCC(=O)Nc2ccc(Cl)c(NC(=O)C(C(=O)c3ccc(OC)cc3)N3C(=O)NC(=C(C)C)C3=O)c2)c(C(C)(C)CC)c1", "note": "(stereo not given)", "melting point": "140 to 141"}
{"smiles": "CN1CCN(c2ccc(Nc3ncc4cc(C#N)c(=O)n(C5CCCC5)c4n3)cc2)CC1", "melting point": "290 to 292"}
{"smiles": "CCCCNc1cc(C(=O)O)cc(S(N)(=O)=O)c1Oc1cccc(NC(C)=O)c1", "melting point": "235 to 240"}
{"smiles": "O=c1ccc2cc(OC3CCC4(CCNCC4)CC3)ccc2o1", "melting point": "193 to 194"}
{"smiles": "N#Cc1nn(C2CCCC2)c2nc(-c3ccncc3)nc(N)c12", "melting point": "219 to 221"}
{"smiles": "N[C@H]1CC[C@H](CC(=O)N2CCN(c3ccccc3)CC2)CC1", "melting point": "90 to 93"}
{"smiles": "COc1cc(OCc2cccnc2)ccc1/C=C/c1cc(/C=C/c2cccc3[nH]ccc23)n[nH]1", "melting point": "109 to 114"}
{"smiles": "CC(N)Cc1ccc(C(N)=O)s1", "note": "(racemic)", "melting point": "91 to 92"}
{"smiles": "CCOCc1nc2c(c(C)c(C)n3nnnc23)n1CCNC(=O)C(C)C", "melting point": "179 to 181"}
{"smiles": "Cc1nc2cc3c(cc2c(=O)[nH]1)C(N(C)c1ccc(C(=O)NC(CCc2nnnn2CC(=O)O)C(=O)O)c(F)c1)CC3", "note": "(mixture of isomers)", "melting point": "232 to 235"}
{"smiles": "ClCCOc1ccc(Br)cc1", "melting point": "54 to 56"}
{"smiles": "COc1ccc(Cl)cc1C(CC(=O)O)c1ccccc1", "note": "(stereo not given)", "melting point": 144}
{"smiles": "CC1(C)CCC(C)(C)c2cc(Oc3ccc4c(CO)cccc4c3)ccc21", "melting point": "131 to 133"}
{"smiles": "NC(=O)C1CCc2[nH]c3ccc(OC(F)(F)F)cc3c2C1", "note": "(stereo not given)", "melting point": "177 to 178"}
{"smiles": "Cc1ccc(-c2c(CNC(=O)OC(C)(C)C)n(CC(C)C)c(=O)c3ccc(/C=C/C(N)=O)cc23)cc1", "melting point": "152 to 154"}
{"smiles": "O=C(O)c1ccc2c(Br)cccc2c1", "melting point": "248 to 250"}
{"smiles": "O=C1CCC(c2ccc(CO)cc2)CC1", "melting point": "58 to 60"}
{"smiles": "COC(=O)C1CN=CN(C)C1", "note": "(stereo not given)", "melting point": "93 to 95"}
{"smiles": "Cc1cccc2nc(CCl)cn12", "melting point": "120 to 121"}
{"smiles": "Cc1cc(=O)[nH]nc1-c1ccc2nc(C3CC3)n(Cc3ccc(-c4ccccc4-c4nnn[nH]4)cc3)c2c1", "melting point": 225}
{"smiles": "COc1ccc(CC(=O)NC(NC(=NC#N)Nc2cc(Cl)ccc2F)C(C)(C)C)cc1OC", "note": "(stereo not given)", "melting point": "187 to 188"}
{"smiles": "N#CCC1CCN(c2ccc(N3C[C@@H](Cn4cc(C#N)nn4)OC3=O)cc2F)CC1", "melting point": "200 to 202"}
{"smiles": "NC(=O)Cc1ccc(OCCN(CC(=O)c2ccc(OCc3ccccc3)c(OCc3ccccc3)c2)Cc2ccccc2)cc1", "melting point": "99 to 101"}
{"smiles": "CCOc1ccc2[nH]c(=O)n(C(C)(C)CC(C)(C)C)c2c1", "melting point": 108}
{"smiles": "CCNc1ccc(CN2OCC(C)(C)C2=O)c(Cl)c1", "melting point": "135 to 138"}
{"smiles": "COc1ccc(Cn2cc3nc(Cl)nc(Cl)c3n2)cc1", "melting point": "108 to 109"}
{"smiles": "CCC(C)(C)NC(=S)Nc1cc(Cl)cc(Cl)c1", "melting point": "134 to 136"}
{"smiles": "CCCCOC(CCN)(c1ccccc1)c1ccccc1", "melting point": "50 to 54"}
{"smiles": "O=C(NCC(F)(F)F)c1ccc(-c2ccc3nnn(Cc4ccc5ncccc5c4)c3n2)cc1F", "melting point": "194 to 196"}
{"smiles": "COc1ccc(Sc2ccncc2)c(N)c1", "melting point": "93 to 94"}
{"smiles": "CCCC(O)(CCC)c1ccc(Cl)c2nc3n(c12)CCCN3c1c(C)cc(Cl)cc1Cl", "melting point": "176 to 178"}
{"smiles": "CCCCn1ccc(-c2ccc(Oc3ccc(C(=O)O)cc3)cc2)c(Cl)c1=O", "melting point": 280}
{"smiles": "CCOC(=O)NCCc1cccc(C(=O)C=CN(C)C)c1", "melting point": "45 to 50"}
{"smiles": "O=C1Cc2cc(Oc3ccccc3)ccc2N1", "melting point": "148 to 150"}
{"smiles": "CCOC(=O)c1cc2c3ccccc3nc(C)n2c1", "melting point": "113 to 116"}
{"smiles": "O=C(NC(Cc1ccc(OCc2ccoc2)cc1)C(=O)O)c1cn2cc(-c3ccc(Cl)cc3)ccc2n1", "note": "(stereo not given)", "melting point": 262}
{"smiles": "COC(=O)CON1C(=O)c2ccccc2C1=O", "melting point": "137 to 142"}
{"smiles": "CC(=O)OC1CCC2(C)C(=CC(=O)C3C2CCC2(C)C(C(C)CCCC(C)C)CCC32)C1", "note": "(stereo not given)", "melting point": "151 to 154"}
{"smiles": "CS(=O)(=O)N1CCN(c2ccc3c(c2)N2CCN=C2C(c2ccccc2)=[N+]3[O-])CC1", "melting point": "252 to 253"}
{"smiles": "Cc1cc(Cl)ccc1NC(=O)c1cccc([N+](=O)[O-])c1C(=O)NC(C)C", "melting point": "202 to 204"}
{"smiles": "CON(Cc1ccc(C)c(F)c1)C(=O)C1=C(O)C(=O)N(C)C1", "melting point": 145}
{"smiles": "CCC1(CC)C(=O)Nc2ccccc21", "melting point": "156 to 159"}
{"smiles": "C=C(CS(=O)(=O)c1ccc(C)cc1)c1ccccc1", "melting point": 103}
{"smiles": "CCOC(=O)CCCN1C(=O)c2ccc(N/C(=C3\\C(=O)Nc4ccccc43)c3ccccc3)cc2C1=O", "melting point": "78 to 80"}
{"smiles": "CC1(C)CC(=O)C(Br)(Cc2ccc(Cl)cc2)C(Br)C1", "note": "(stereo not given)", "melting point": "82 to 84"}
{"smiles": "CC1(C)NC(=O)N(c2ccc(Cl)c(C(F)(F)F)c2)C1=O", "melting point": "152 to 153"}
{"smiles": "CCCCOC(=O)NS(=O)(=O)CCc1cc(OCCCC)nn1Cc1ccc(Cl)cc1Cl", "melting point": "108 to 111"}
{"smiles": "CC(C)(CCl)C(=O)N(O)Cc1ccccc1Br", "melting point": "119 to 121"}
{"smiles": "CCOC(=O)c1cn2c(ccc3ccc(Cl)cc32)n1", "melting point": "221 to 222"}
{"smiles": "O=C(NC(Cc1ccc(OCc2ccccc2)cc1)C(=O)O)c1cn2cc(-c3ccccc3F)ccc2n1", "note": "(stereo not given)", "melting point": 238}
{"smiles": "N#Cc1c(O)nsc1S(=O)(=O)Cc1ccccc1", "melting point": "181 to 183"}
{"smiles": "COc1ccc2c(c1)N1CCOCC1C[N+]([O-])=C2c1ccco1", "note": "(stereo not given)", "melting point": "183 to 186"}
{"smiles": "CCCc1cc(O)nc(-c2cccc(Oc3ccccc3Cl)n2)n1", "melting point": 95.1}
{"smiles": "COC(C)CCC1(O)C2=NCCCN2c2cc(Cl)ccc21", "note": "(stereo not given)", "melting point": "146 to 148"}
{"smiles": "CCOC(=O)c1ccc(OCc2nc(-c3ccco3)oc2C)c(OC)c1", "melting point": "133 to 134"}
{"smiles": "Cn1c(C(F)(F)F)cc(=O)n(-c2ccc3snc(C4SCCS4)c3c2)c1=O", "melting point": "227 to 232"}
{"smiles": "CN(C)CC1(C2(O)CCCCC2)Cc2cc3ccn(C)c3cc21", "note": "(stereo not given)", "melting point": "148 to 150"}
{"smiles": "CCCC(=O)C1=C(O)CC(c2ccc(OC)c(NC(C)=O)c2)CC1=O", "note": "(stereo not given)", "melting point": "102 to 106"}
{"smiles": "O=C(O)Cc1ccc(-c2onc3ccccc23)cc1", "melting point": "179 to 181"}
{"smiles": "CS(=O)(=O)c1ccc(C(CC2CCCC2)C(=O)Nc2ccncn2)cc1[N+](=O)[O-]", "note": "(stereo not given)", "melting point": "91 to 95"}
{"smiles": "CCOC(=O)c1cnoc1-c1ccc(OC)c(OC)c1", "melting point": "113 to 114"}
{"smiles": "CCCNC(=O)C1Cc2[nH]c3ccc(OC)cc3c2C1", "note": "(stereo not given)", "melting point": "141 to 143"}
{"smiles": "Cc1nc2c3c(ccn2c1C)C(O)C(O)C(c1ccccc1)N3", "note": "(stereo not given)", "melting point": "199 to 200"}
{"smiles": "Cc1nc2cc(N)ccc2c(=O)n1C1CCC(=O)NC1=O", "note": "(stereo not given)", "melting point": "305 to 307"}
{"smiles": "CC(C)(C)OC(=O)N1CCn2c(Cl)c(-c3ccccc3)c(C(N)=O)c2C1", "melting point": "178 to 180"}
{"smiles": "CCCC1=C(C(=O)OCC)C(c2ccccc2C#N)c2c[nH]nc2N1", "note": "(stereo not given)", "melting point": 211}
{"smiles": "Cc1ccc(C(=O)Nc2ccc(N3CCCCC3)c(C(F)(F)F)c2)cc1Nc1nccc(-c2cccnc2)n1", "melting point": "201 to 202"}
{"smiles": "CCOC(=O)c1nc(-c2ccccc2)n(-c2ccc(C(F)(F)F)cc2Cl)n1", "melting point": "107 to 108"}
{"smiles": "CC(C)CCCC(C)C1CCC2C3CC=C4CC(OCCCCCCN5C(=O)c6ccccc6C5=O)CCC4(C)C3CCC12C", "note": "(stereo not given)", "melting point": 80}
{"smiles": "CCCCCCCCc1cc(C=O)co1", "melting point": 25}
{"smiles": "CC(=O)OC1CC2=CCC3C4CCC(C(C)CCCC(C)C)C4(C)CCC3C2(C)C(O)C1O", "note": "(stereo not given)", "melting point": "131 to 133"}
{"smiles": "CCCCCC(O)C1C(=O)NC2(C(O)C3C=CCCC3)C(=O)OC12C", "note": "(stereo not given)", "melting point": 144}
{"smiles": "CC(=O)NC(=Cc1ccc(F)cc1)C(=O)OCCC(F)=C(F)F", "melting point": 116}
{"smiles": "NC(=O)c1cncc(OCC(O)CO)c1", "note": "(stereo not given)", "melting point": "197 to 199"}
{"smiles": "O=C1NC(=O)c2ccccc2/C1=C/Nc1ccc2ncccc2c1", "melting point": "277 to 278"}
{"smiles": "COc1ccc(Cn2c(=O)c(C(=O)NC3CCCCC3)c(O)c3cc(F)cnc32)cc1", "melting point": 176}
{"smiles": "COc1cc2onc(C3CCN(c4c(C)[nH]c5ccccc45)CC3)c2cc1OC", "melting point": "176 to 178"}
{"smiles": "COc1cc(N)c(Cl)cc1C(=O)NC1CCN(CC2CCN(C(C)C(C)=O)CC2)CC1", "note": "(stereo not given)", "melting point": "268 to 270"}
